From ChEMBL document CHEMBL1201862, “PubChem BioAssay data set” (2004)
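Five concentrations, 48 hours, 96-well plates. The concentration for 50% growth inhibition is given as GI50.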 Active and inactive are the calls of the source. Cut-off read from the data, not from the text of the source: active = GI50 up to about 1.1 µM and inactive = higher.

What was measured:
Experiment in all cases: growth of human tumour cells (NCI), 48 h
OVCAR-8 = system: OVCAR-8
LOX IMVI = system: LOX IMVI
CAKI-1 = system: CAKI-1
NCI-H23 = system: NCI-H23
K562 = system: K562
KM12 = system: KM12
786-0 = system: 786-0
NCI-H226 = system: NCI-H226
DLD-1 = system: DLD-1
HT-29 = system: HT-29
UO-31 = system: UO-31
OVCAR-4 = system: OVCAR-4
EKVX = system: EKVX
HCC 2998 = system: HCC 2998
IGROV-1 = system: IGROV-1
ACHN = system: ACHN
SK-MEL-5 = system: SK-MEL-5
SK-OV-3 = system: SK-OV-3
DMS-114 = system: DMS-114
U-251 = system: U-251
A549 = system: A549
NCI-H522 = system: NCI-H522
UACC-62 = system: UACC-62
CCRF-CEM = system: CCRF-CEM
SF-295 = system: SF-295
UACC-257 = system: UACC-257
SNB-19 = system: SNB-19
RPMI-8226 = system: RPMI-8226
Malme-3M = system: Malme-3M
RXF 393 = system: RXF 393
RXF 631 = system: RXF 631
SK-MEL-2 = system: SK-MEL-2
M14 = system: M14
HCT-15 = system: HCT-15
TK-10 = system: TK-10
SN12C = system: SN12C
COLO 205 = system: COLO 205
DMS-273 = system: DMS-273
LXFL 529 = system: LXFL 529
SF-539 = system: SF-539
SW-620 = system: SW-620
MOLT-4 = system: MOLT-4
OVCAR-3 = system: OVCAR-3
SNB-78 = system: SNB-78
M19-MEL = system: M19-MEL
HL-60 = system: HL-60
HOP-18 = system: HOP-18
HOP-62 = system: HOP-62
OVCAR-5 = system: OVCAR-5
A498 = system: A498
NCI-H460 = system: NCI-H460
SF-268 = system: SF-268
SNB-75 = system: SNB-75
KM-20L2 = system: KM-20L2
SK-MEL-28 = system: SK-MEL-28
SR = system: SR
HCT-116 = system: HCT-116
HOP-92 = system: HOP-92

## CCOC(=O)c1ccc(/N=N\c2ccc(N(CCC#N)CCC#N)cc2C)cc1
OVCAR-8
  GI50: > 100 µM (inactive)
LOX IMVI
  GI50: > 100 µM (inactive)
CAKI-1
  GI50: > 100 µM (inactive)
NCI-H23
  GI50: 95.1 µM (inactive)
K562
  GI50: > 100 µM (inactive)
KM12
  GI50: > 100 µM (inactive)
786-0
  GI50: 35.6 µM (inactive)
NCI-H226
  GI50: > 100 µM (inactive)
DLD-1
  GI50: > 100 µM (inactive)
HT-29
  GI50: > 100 µM (inactive)
UO-31
  GI50: > 100 µM (inactive)
OVCAR-4
  GI50: > 100 µM (inactive)
EKVX
  GI50: > 100 µM (inactive)
HCC 2998
  GI50: > 100 µM (inactive)
IGROV-1
  GI50: > 100 µM (inactive)
ACHN
  GI50: > 100 µM (inactive)
SK-MEL-5
  GI50: > 100 µM (inactive)
SK-OV-3
  GI50: > 100 µM (inactive)
DMS-114
  GI50: > 100 µM (inactive)
U-251
  GI50: > 100 µM (inactive)
A549
  GI50: > 100 µM (inactive)
NCI-H522
  GI50: 30.4 µM (inactive)
UACC-62
  GI50: > 100 µM (inactive)
CCRF-CEM
  GI50: > 100 µM (inactive)
SF-295
  GI50: > 100 µM (inactive)
UACC-257
  GI50: > 100 µM (inactive)
SNB-19
  GI50: > 100 µM (inactive)
RPMI-8226
  GI50: > 100 µM (inactive)
Malme-3M
  GI50: > 100 µM (inactive)
RXF 393
  GI50: > 100 µM (inactive)
RXF 631
  GI50: > 100 µM (inactive)
SK-MEL-2
  GI50: > 100 µM (inactive)
M14
  GI50: > 100 µM (inactive)
HCT-15
  GI50: > 100 µM
TK-10
  GI50: > 100 µM (inactive)
SN12C
  GI50: > 100 µM (inactive)
COLO 205
  GI50: > 100 µM (inactive)
DMS-273
  GI50: > 100 µM (inactive)
LXFL 529
  GI50: 35.9 µM (inactive)
SF-539
  GI50: 72.9 µM (inactive)
SW-620
  GI50: > 100 µM (inactive)
MOLT-4
  GI50: > 100 µM (inactive)
OVCAR-3
  GI50: > 100 µM (inactive)
SNB-78
  GI50: > 100 µM (inactive)
M19-MEL
  GI50: > 100 µM (inactive)
HL-60
  GI50: > 100 µM (inactive)
HOP-18
  GI50: 51.6 µM (inactive)
HOP-62
  GI50: > 100 µM (inactive)
OVCAR-5
  GI50: > 100 µM (inactive)
A498
  GI50: > 100 µM (inactive)

## Cc1cccc(NC2=NC(=O)C(CC(=O)Nc3ccc(Cl)cc3C)S2)c1 (stereo not given)
OVCAR-8
  GI50: > 100 µM (inactive)
NCI-H460
  GI50: > 100 µM (inactive)
LOX IMVI
  GI50: > 100 µM (inactive)
CAKI-1
  GI50: > 100 µM (inactive)
NCI-H23
  GI50: > 100 µM (inactive)
K562
  GI50: > 100 µM (inactive)
KM12
  GI50: > 100 µM (inactive)
786-0
  GI50: > 100 µM (inactive)
NCI-H226
  GI50: > 100 µM (inactive)
DLD-1
  GI50: > 100 µM (inactive)
HT-29
  GI50: > 100 µM (inactive)
UO-31
  GI50: > 100 µM (inactive)
OVCAR-4
  GI50: > 100 µM (inactive)
EKVX
  GI50: > 100 µM (inactive)
HCC 2998
  GI50: > 100 µM (inactive)
IGROV-1
  GI50: > 100 µM (inactive)
ACHN
  GI50: > 100 µM (inactive)
SK-MEL-5
  GI50: > 100 µM (inactive)
SK-OV-3
  GI50: > 100 µM (inactive)
DMS-114
  GI50: > 100 µM (inactive)
A549
  GI50: > 100 µM (inactive)
NCI-H522
  GI50: > 100 µM (inactive)
UACC-62
  GI50: > 100 µM (inactive)
SF-268
  GI50: > 100 µM (inactive)
CCRF-CEM
  GI50: > 100 µM (inactive)
SF-295
  GI50: > 100 µM (inactive)
UACC-257
  GI50: > 100 µM (inactive)
SNB-19
  GI50: > 100 µM (inactive)
RPMI-8226
  GI50: > 100 µM (inactive)
Malme-3M
  GI50: > 100 µM (inactive)
RXF 393
  GI50: > 100 µM (inactive)
RXF 631
  GI50: > 100 µM (inactive)
SK-MEL-2
  GI50: > 100 µM (inactive)
M14
  GI50: > 100 µM (inactive)
HCT-15
  GI50: > 100 µM
TK-10
  GI50: > 100 µM (inactive)
SN12C
  GI50: > 100 µM (inactive)
COLO 205
  GI50: > 100 µM (inactive)
DMS-273
  GI50: > 100 µM (inactive)
LXFL 529
  GI50: > 100 µM (inactive)
SF-539
  GI50: > 100 µM (inactive)
SW-620
  GI50: > 100 µM (inactive)
MOLT-4
  GI50: > 100 µM (inactive)
SNB-75
  GI50: > 100 µM (inactive)
OVCAR-3
  GI50: > 100 µM (inactive)
M19-MEL
  GI50: > 100 µM (inactive)
KM-20L2
  GI50: > 100 µM (inactive)
HL-60
  GI50: > 100 µM (inactive)
SK-MEL-28
  GI50: > 100 µM (inactive)
HOP-18
  GI50: > 100 µM (inactive)
HOP-62
  GI50: > 100 µM (inactive)
OVCAR-5
  GI50: > 100 µM (inactive)
A498
  GI50: 53.8 µM (inactive)

## C=C(C=O)[C@@H]1C2OC(=O)C(=C)[C@@H]2CC(O)[C@@]1(C)CC (stereo not given in full)
OVCAR-8
  GI50: 4.37 µM (inactive)
NCI-H460
  GI50: 21.2 µM (inactive)
LOX IMVI
  GI50: 15.8 µM (inactive)
CAKI-1
  GI50: 9.38 µM (inactive)
NCI-H23
  GI50: 7.23 µM (inactive)
K562
  GI50: 3.27 µM (inactive)
KM12
  GI50: 13.1 µM (inactive)
786-0
  GI50: 3.32 µM (inactive)
NCI-H226
  GI50: 32 µM (inactive)
DLD-1
  GI50: 2.75 µM (inactive)
HT-29
  GI50: 6.75 µM (inactive)
SR
  GI50: 3.4 µM (inactive)
UO-31
  GI50: 21.3 µM (inactive)
OVCAR-4
  GI50: 11.5 µM (inactive)
EKVX
  GI50: 18.2 µM (inactive)
HCC 2998
  GI50: 16.6 µM (inactive)
HCT-116
  GI50: 3.78 µM (inactive)
IGROV-1
  GI50: 10.7 µM (inactive)
ACHN
  GI50: 13.7 µM (inactive)
SK-MEL-5
  GI50: 6.78 µM (inactive)
SK-OV-3
  GI50: > 60.5 µM (inactive)
DMS-114
  GI50: 14.8 µM (inactive)
U-251
  GI50: 11.7 µM (inactive)
A549
  GI50: 32.8 µM (inactive)
NCI-H522
  GI50: 1.87 µM (inactive)
UACC-62
  GI50: 4.12 µM (inactive)
SF-268
  GI50: 23.8 µM (inactive)
CCRF-CEM
  GI50: 2.08 µM (inactive)
SF-295
  GI50: 22.4 µM (inactive)
UACC-257
  GI50: 11.9 µM (inactive)
SNB-19
  GI50: 45.2 µM (inactive)
RPMI-8226
  GI50: 2.93 µM (inactive)
Malme-3M
  GI50: 6.21 µM (inactive)
RXF 393
  GI50: 2.11 µM (inactive)
RXF 631
  GI50: 19.2 µM (inactive)
SK-MEL-2
  GI50: 13.2 µM (inactive)
M14
  GI50: 4.83 µM (inactive)
HCT-15
  GI50: 6.22 µM
TK-10
  GI50: 15.7 µM (inactive)
SN12C
  GI50: 10.1 µM (inactive)
COLO 205
  GI50: 5.66 µM (inactive)
LXFL 529
  GI50: 3.08 µM (inactive)
SF-539
  GI50: 9.29 µM (inactive)
SW-620
  GI50: 3.16 µM (inactive)
MOLT-4
  GI50: 2.48 µM (inactive)
SNB-75
  GI50: > 100 µM (inactive)
OVCAR-3
  GI50: 6.71 µM (inactive)
SNB-78
  GI50: 6.17 µM (inactive)
HOP-92
  GI50: 2.33 µM (inactive)
M19-MEL
  GI50: 5.48 µM (inactive)
KM-20L2
  GI50: 12.2 µM (inactive)
HL-60
  GI50: 2.25 µM (inactive)
SK-MEL-28
  GI50: 3.83 µM (inactive)
HOP-18
  GI50: 26.1 µM (inactive)
HOP-62
  GI50: 50.2 µM (inactive)
OVCAR-5
  GI50: 17.8 µM (inactive)
A498
  GI50: 17.1 µM (inactive)
